Data on two molecules can be found in US4012345A, “Des-(Ala^1, Gly^2), Met^11 -SRIF and intermediates” (American Home Products Corporation, priority 1976, dated 1977).

Positions of bridges follow the written chain, without caps; N, C: chain ends. Residues, ends and D or L forms follow the SMILES beside them.

One assay deals with insulin. Nature of the assay: Arginine-stimulated plasma insulin in Nembutal-anesthetized rats (radioimmunoassay). Format: in vivo, albino male rats. As for the experimental part: (§1) The in vivo activity of the compounds of this invention was established by subjecting des-(Ala^1, Gly2), Met^11 -Somatostatin, as a representative compound of the invention, to the following standard test procedure: Three groups of ten albino male rats were arranged to provide a control group, a group for observation of Somatostatin activity as the standard and a group for the study of the test compound des-(Ala^1, Gly^2), Met^11 -Somatostatin. Nembutal (50 mg/kg) was injected intraperitoneally into each rat. Fifteen minutes later a subcutaneous injection of the test compound, somatostatin and physiological saline (control) was administered separately to each of the three groups of rats. Ten minutes later 0.5 milliliters of arginine (300 mg/ml, pH 7.2) was injected into the rats heart. The rats were decapitated five minutes later and their blood was collected in Trasylol -EDTA. Aliquot samples were radioimmunoassayed for growth hormone and insulin.

Another assay deals with growth hormone. Put plainly: Arginine-stimulated plasma growth hormone in Nembutal-anesthetized rats (radioimmunoassay). Format: in vivo, albino male rats. To be noted: *p < 0.01. The protocol:
as §1

The next assay has as its system somatotropin. To be noted: Brazeau et al., Science, 179 pp 77-79 (1973); cited from earlier work.

Take `CSCC[C@@H]1NC(=O)[C@H]([C@@H](C)O)NC(=O)[C@H](CCCCN)NC(=O)[C@H](Cc2c[nH]c3ccccc23)NC(=O)[C@H](Cc2ccccc2)NC(=O)[C@H](Cc2ccccc2)NC(=O)[C@H](CC(N)=O)NC(=O)[C@H](CCCCN)NC(=O)[C@@H](N)CSSC[C@@H](C(=O)O)NC(=O)[C@H](CO)NC(=O)[C@H]([C@@H](C)O)NC1=O` [Example 3, L-Cysteinyl-L-lysyl-L-asparaginyl-L-phenylalanyl-L-phenylalanyl-L-tryptophyl-L-lysyl-L-threonyl-L-methionyl-L-threonyl-L-seryl-L-cysteine (1-12) disulfide] (H-CKNFFWKTMTSC-OH; disulfide 1-12): the Insulin came to 143 ± 13 μU/ml in the assay with insulin (Experiment 1, dose 400 μg/kg subcutaneous, control 172 ± 11, *p < 0.01) and 128 ± 13 μU/ml in the assay with insulin (Experiment 3, dose 1500 μg/kg subcutaneous, control 206 ± 19). Further, the GH with growth hormone (Experiment 2, dose 100 μg/kg subcutaneous, control 176 ± 29) amounted to 72 ± 12 ng/mL; in the assay with growth hormone (Experiment 3, dose 1500 μg/kg subcutaneous, control 123 ± 16) it was 42 ± 10 ng/mL.
Turning to “H-Ala-Gly-Cys-Lys-Asn-Phe-Phe-Trp-Lys-Thr-Phe-Thr-Ser-Cys-OH (H-AGCKNFFWKTFTSC-OH; ends and bridges not checked) [linear form of somatostatin]”, the “inhibition of secretion of somatotropin (growth hormone)” value in the assay on somatotropin is on record as “same biological activity as somatostatin obtained from a natural source”.
